Assay [1] deals with HPV16 E6 (Human papillomavirus type 16, UniProt P03126). The note with it: FIG. 1, solubility-optimized versions and mutants.
Assay [2] deals with HPV16-positive CaSki cells. The experiment in a line: Clonogenic survival assay, CaSki. It is filed as cell-based. The conditions noted are these: stable expression.
Assay [3] has as its system HPV16-positive SiHa cells. The assay is described as follows: Clonogenic survival assay, SiHa. It is filed as cell-based. The note with it: stable expression. The source says: HPV16-positive cell lines SiHa and MRI-H-186, HPV18-positive HeLa cells and the HPV-negative osteosarcoma cell line U-2 OS were transfected with peptide expression vectors which allowed for hygromcyin B selection (pCEP4, Invitrogen). After 6-7 days of selection, cells were fixed and stained with formaldehyde-crystal violet solution.

Sequence of HPV16 E6 (P03126 whole entry): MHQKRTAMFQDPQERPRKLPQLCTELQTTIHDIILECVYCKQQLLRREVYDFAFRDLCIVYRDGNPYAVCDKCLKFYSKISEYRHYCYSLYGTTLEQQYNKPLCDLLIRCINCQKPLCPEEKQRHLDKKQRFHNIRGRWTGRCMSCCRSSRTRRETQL

As to pep11**m (EYNSNCSCIACIGLI; E6 pep11*), the “activity (binding to HPV16 E6) of pep 11 variants and mutants” value in assay [1] is “inactive”. Moreover, the “growth in clonogenic survival assay” value in assay [2] and in assay [3] was “showed no effect” in each case.

For “E6AP peptide: E6 binding consensus motif within E6AP (SEQ ID NO: 9) (KEKEEYNSNSSSIASIGLI; E6 pep11*) [reference compound]”, the “growth in clonogenic survival assay” value in assay [2] and in assay [3] was “showed no effect” throughout.

Values taken from US8598126B2, “Peptides for inhibiting the HPV-E6 oncoprotein” (priority 2008, dated 2013).
